In patent publication US20250326753A1, “DUAL CXCR4-BTK INHIBITORS” (X4 Pharmaceuticals, Inc., priority 2022, published 2025) one finds inhibition data, which are given here for four molecules.

Holding throughout (type): biochemical
One test concerns the target T1, TRKC (Homo sapiens, UniProt Q16288).
T1 construct: purchased Reaction Biology Europe GmbH
As to the kind of experiment: PanQinase kinase panel: TRKC. The following applies: read-out: INHIBITORY EFFECT @ 1 uM: TRKC. As for the experimental part:
(§1) Screening procedures were performed in accordance with the company's on-line protocol [accessed on-line Mar.
(§2) For each kinase, the median value of the cpm of three wells was defined as “low control” (n=3). This value reflects unspecific binding of radioactivity to the plate in the absence of a protein kinase but in the presence of the substrate. Additionally, for each kinase the median value of the cpm of three other wells was taken as the “high control,” i.e. full activity in the absence of any inhibitor (n=3). The difference between high and low control of each enzyme was taken as 100% activity.
(§3) As part of the data evaluation the low control of each kinase was subtracted from the high control value as well as from their corresponding “compound values”. The residual activity (in %) for each compound well was calculated by using the following formula: Res. Activity (%)=100×[(signal of compound−low control)/(high control−low control)].

In a further test the target is T2, PDGFRalpha (Homo sapiens, UniProt P16234).
T2 construct: purchased Reaction Biology Europe GmbH
T2 sequence (P16234 24-1089): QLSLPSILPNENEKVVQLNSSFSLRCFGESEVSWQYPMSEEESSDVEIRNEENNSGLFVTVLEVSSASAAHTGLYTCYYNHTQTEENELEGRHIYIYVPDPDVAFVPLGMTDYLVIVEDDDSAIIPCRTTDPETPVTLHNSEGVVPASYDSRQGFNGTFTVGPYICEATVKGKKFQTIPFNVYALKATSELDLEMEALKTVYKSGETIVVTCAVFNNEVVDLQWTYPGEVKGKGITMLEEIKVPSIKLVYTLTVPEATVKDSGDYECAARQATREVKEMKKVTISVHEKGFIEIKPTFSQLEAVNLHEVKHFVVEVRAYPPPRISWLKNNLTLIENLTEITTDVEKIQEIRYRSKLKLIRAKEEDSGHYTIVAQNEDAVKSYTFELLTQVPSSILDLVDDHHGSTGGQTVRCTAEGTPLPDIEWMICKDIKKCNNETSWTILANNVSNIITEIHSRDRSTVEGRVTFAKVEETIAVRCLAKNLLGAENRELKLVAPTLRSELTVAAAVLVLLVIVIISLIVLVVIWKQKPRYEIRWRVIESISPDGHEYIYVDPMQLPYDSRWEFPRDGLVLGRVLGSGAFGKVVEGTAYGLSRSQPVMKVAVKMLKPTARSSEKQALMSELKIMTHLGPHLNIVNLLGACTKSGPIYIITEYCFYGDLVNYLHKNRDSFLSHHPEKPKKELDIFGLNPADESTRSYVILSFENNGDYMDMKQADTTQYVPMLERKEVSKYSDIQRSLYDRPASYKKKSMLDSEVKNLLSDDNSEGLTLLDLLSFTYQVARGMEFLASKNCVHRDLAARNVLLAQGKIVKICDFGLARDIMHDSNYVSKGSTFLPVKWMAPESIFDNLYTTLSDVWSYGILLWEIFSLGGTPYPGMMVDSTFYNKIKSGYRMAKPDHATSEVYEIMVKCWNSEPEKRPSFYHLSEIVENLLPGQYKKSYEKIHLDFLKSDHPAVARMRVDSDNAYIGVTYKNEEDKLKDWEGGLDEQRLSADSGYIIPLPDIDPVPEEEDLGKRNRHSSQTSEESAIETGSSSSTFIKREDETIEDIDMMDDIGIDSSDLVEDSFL
As to the kind of experiment: PanQinase kinase panel: PDGFRalpha. The following applies: read-out: INHIBITORY EFFECT @ 1 uM: PDGFRalpha. How it is done:
as §1, §2, §3

A further test addresses T3, FES (Homo sapiens, UniProt P07332).
T3 construct: purchased Reaction Biology Europe GmbH
As to the kind of experiment: PanQinase kinase panel: FES. The following applies: read-out: INHIBITORY EFFECT @ 1 uM: FES. As for the experimental part:
as §1, §2, §3

Another test addresses T4, EPHB2 (Homo sapiens, UniProt P29323).
T4 construct: purchased Reaction Biology Europe GmbH
T4 sequence (P29323 19-1055): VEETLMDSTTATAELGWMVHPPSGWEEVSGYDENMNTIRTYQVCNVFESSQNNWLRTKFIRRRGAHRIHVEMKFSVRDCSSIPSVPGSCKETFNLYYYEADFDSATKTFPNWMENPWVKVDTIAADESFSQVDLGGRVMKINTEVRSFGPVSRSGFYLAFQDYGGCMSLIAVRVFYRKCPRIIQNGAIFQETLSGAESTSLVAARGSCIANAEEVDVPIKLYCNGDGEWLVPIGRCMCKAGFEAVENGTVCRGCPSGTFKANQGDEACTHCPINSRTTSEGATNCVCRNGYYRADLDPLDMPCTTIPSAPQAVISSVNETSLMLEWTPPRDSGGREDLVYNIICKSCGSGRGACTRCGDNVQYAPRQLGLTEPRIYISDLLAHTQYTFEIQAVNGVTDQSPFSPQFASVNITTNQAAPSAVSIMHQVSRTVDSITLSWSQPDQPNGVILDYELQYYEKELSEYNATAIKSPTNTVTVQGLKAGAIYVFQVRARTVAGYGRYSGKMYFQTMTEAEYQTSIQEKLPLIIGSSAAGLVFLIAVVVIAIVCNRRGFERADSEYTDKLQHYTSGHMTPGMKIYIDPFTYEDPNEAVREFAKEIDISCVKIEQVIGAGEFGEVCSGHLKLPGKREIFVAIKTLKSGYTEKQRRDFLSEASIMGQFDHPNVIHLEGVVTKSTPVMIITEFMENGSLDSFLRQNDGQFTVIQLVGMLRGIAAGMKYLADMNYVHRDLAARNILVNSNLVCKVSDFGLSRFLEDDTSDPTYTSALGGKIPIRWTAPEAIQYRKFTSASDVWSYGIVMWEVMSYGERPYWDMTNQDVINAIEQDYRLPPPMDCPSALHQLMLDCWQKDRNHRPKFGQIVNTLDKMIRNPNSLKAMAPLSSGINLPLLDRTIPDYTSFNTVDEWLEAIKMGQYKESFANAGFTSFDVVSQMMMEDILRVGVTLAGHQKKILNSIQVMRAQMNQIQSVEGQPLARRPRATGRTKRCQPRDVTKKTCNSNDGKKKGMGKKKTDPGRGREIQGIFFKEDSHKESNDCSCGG
As to the kind of experiment: PanQinase kinase panel: EPHB2. The following applies: read-out: INHIBITORY EFFECT @ 1 uM: EPHB2. How it is done: as §1, §2, §3

A further test concerns the target T5, CK1epsilon (Homo sapiens, UniProt P49674).
T5 construct: purchased Reaction Biology Europe GmbH
As to the kind of experiment: PanQinase kinase panel: CK1epsilon. Particulars: read-out: INHIBITORY EFFECT @ 1 uM: CK1epsilon. How it is done: as §1, §2, §3

The target in a further test is T6, MEKK2 (Homo sapiens, UniProt Q9Y2U5).
T6 construct: purchased Reaction Biology Europe GmbH
T6 sequence (Q9Y2U5 1-619): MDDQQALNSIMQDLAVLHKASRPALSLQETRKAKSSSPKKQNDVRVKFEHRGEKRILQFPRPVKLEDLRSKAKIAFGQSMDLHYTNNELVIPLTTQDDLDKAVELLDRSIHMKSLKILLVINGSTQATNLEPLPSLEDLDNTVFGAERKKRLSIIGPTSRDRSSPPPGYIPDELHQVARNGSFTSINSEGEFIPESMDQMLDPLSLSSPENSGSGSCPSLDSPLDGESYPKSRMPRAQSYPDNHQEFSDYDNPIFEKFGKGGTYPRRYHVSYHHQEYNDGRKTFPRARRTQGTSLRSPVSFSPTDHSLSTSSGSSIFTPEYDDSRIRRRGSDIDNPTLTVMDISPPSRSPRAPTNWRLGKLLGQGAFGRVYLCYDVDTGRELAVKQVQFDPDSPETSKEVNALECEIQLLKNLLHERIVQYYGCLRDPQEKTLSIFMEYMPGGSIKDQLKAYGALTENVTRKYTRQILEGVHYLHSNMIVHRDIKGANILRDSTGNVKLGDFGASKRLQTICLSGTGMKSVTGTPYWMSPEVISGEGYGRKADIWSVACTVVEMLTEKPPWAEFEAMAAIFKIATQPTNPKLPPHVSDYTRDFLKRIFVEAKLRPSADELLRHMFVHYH
Put plainly: PanQinase kinase panel: MEKK2. Particulars: read-out: INHIBITORY EFFECT @ 1 uM: MEKK2. As for the experimental part:
as §1, §2, §3

The next test addresses T7, LCK (Homo sapiens, UniProt P06239).
T7 construct: purchased Reaction Biology Europe GmbH
Put plainly: PanQinase kinase panel: LCK. Particulars: read-out: INHIBITORY EFFECT @ 1 uM: LCK. As for the experimental part:
as §1, §2, §3

For another test, the target named is T8, LRRK2 (Homo sapiens, UniProt Q5S007).
T8 construct: purchased Reaction Biology Europe GmbH
T8 sequence (Q5S007 whole entry): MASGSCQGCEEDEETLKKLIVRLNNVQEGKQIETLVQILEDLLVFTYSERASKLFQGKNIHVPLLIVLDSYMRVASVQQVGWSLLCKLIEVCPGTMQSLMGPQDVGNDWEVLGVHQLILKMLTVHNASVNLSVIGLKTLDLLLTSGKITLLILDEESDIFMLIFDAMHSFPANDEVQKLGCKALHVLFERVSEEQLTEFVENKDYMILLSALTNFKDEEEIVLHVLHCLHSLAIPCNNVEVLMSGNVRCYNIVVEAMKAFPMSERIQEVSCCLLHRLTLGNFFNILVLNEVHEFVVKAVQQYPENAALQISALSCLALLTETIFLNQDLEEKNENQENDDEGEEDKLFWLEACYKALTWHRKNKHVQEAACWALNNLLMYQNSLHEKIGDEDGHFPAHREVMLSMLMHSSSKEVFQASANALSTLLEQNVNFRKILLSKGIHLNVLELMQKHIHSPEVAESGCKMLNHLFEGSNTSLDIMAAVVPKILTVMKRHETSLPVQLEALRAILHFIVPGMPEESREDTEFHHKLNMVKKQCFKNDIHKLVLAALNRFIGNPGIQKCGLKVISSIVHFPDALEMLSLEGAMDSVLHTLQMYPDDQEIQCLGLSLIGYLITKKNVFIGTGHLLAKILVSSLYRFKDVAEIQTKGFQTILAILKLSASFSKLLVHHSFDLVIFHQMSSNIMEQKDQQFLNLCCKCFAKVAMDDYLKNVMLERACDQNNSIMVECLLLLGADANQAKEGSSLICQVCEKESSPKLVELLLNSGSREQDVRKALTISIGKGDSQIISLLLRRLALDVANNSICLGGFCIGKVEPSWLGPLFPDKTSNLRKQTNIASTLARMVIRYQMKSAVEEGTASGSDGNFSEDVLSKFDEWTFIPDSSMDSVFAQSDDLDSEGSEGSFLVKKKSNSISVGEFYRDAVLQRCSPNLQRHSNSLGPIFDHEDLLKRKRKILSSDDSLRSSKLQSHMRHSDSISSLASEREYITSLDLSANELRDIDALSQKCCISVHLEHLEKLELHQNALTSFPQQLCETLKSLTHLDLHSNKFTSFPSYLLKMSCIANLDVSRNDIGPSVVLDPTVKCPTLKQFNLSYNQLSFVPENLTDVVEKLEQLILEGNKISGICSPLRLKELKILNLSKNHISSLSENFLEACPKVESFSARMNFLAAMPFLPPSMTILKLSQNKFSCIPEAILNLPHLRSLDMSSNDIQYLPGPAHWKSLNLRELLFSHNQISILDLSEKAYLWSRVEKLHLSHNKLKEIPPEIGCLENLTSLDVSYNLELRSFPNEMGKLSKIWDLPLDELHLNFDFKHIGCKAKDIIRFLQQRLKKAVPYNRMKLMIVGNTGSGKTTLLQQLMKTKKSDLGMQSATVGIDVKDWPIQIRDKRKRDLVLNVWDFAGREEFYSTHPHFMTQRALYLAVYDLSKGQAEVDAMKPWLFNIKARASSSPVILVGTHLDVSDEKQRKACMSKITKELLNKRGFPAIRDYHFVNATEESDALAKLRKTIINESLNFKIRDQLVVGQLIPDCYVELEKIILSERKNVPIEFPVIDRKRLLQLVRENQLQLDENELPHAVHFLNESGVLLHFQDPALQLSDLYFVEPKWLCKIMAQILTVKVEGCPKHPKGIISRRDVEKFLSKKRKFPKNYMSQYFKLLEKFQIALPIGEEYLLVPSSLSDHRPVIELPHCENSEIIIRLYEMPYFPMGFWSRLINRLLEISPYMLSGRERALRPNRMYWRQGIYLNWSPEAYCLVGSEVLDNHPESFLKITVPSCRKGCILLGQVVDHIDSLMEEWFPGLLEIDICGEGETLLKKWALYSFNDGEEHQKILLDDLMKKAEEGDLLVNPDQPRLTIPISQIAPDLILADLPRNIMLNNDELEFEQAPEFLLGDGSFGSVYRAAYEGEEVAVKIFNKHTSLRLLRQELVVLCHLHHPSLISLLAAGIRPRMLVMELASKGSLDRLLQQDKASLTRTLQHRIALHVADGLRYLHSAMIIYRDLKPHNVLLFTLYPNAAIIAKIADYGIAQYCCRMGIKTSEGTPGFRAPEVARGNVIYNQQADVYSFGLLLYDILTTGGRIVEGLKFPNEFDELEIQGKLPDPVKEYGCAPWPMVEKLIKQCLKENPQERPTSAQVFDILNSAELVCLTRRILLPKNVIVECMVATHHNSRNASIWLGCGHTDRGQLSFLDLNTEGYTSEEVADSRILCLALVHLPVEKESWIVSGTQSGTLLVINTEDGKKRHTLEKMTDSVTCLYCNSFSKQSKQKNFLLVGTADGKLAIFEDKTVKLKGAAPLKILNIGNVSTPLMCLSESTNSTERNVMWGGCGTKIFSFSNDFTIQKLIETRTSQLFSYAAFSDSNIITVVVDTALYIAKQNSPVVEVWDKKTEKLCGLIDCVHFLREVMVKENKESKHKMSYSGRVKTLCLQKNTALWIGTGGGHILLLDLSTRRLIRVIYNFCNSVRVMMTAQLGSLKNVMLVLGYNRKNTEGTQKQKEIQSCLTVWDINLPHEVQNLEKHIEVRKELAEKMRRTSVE
As to the kind of experiment: PanQinase kinase panel: LRRK2. The following applies: read-out: INHIBITORY EFFECT @ 1 uM: LRRK2. How it is done:
as §1, §2, §3

The target in a further test is T9, CLK2 (Homo sapiens, UniProt P49760).
T9 construct: purchased Reaction Biology Europe GmbH
T9 sequence (P49760 whole entry): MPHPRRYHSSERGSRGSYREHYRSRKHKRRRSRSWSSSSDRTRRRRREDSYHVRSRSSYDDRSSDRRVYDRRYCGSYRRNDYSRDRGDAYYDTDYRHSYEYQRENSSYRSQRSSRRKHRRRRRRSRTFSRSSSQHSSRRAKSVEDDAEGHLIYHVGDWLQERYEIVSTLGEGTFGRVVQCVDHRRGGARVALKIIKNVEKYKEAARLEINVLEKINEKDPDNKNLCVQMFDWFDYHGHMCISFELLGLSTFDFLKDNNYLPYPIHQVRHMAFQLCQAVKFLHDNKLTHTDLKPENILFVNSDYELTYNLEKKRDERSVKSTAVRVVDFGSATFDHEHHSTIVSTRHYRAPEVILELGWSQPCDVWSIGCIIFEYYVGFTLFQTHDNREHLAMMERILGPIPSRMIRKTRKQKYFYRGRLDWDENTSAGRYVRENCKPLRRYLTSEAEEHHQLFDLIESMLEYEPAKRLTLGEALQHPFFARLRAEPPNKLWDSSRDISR
Put plainly: PanQinase kinase panel: CLK2. How it is done:
as §1, §2, §3

The mark [1] stands for this setting: read-out: INHIBITORY EFFECT @ 1 uM: CLK2.

Like-named read-outs stand apart in the source and are kept apart here. A value given as a limit tells only on which side of the number the result lay.

T1 sequence (Q16288 32-839): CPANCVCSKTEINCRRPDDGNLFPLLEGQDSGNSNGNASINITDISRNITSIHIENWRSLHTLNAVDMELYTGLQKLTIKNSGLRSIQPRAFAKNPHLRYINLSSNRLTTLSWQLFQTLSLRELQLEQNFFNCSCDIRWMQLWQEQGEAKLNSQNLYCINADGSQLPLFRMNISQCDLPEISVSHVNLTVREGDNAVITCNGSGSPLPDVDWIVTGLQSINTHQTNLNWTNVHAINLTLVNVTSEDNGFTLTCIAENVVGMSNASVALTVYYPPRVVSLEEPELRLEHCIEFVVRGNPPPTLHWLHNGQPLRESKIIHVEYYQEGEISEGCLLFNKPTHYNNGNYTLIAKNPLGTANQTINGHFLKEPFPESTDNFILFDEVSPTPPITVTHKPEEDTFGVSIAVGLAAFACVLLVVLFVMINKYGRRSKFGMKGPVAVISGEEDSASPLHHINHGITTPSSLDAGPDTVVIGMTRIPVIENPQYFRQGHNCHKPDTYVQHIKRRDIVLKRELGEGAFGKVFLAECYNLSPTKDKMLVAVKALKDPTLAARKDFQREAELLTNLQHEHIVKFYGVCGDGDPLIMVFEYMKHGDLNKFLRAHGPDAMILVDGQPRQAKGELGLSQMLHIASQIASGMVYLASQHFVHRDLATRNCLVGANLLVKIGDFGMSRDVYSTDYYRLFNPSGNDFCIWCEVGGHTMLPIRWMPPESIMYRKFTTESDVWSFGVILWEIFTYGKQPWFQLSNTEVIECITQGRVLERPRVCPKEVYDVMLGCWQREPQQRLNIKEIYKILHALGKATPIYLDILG

Consider `O=C(c1ccc(Oc2ccccc2)cc1Cl)c1c[nH]c2ncnc(N[C@@H]3CC[C@@H](CO)OC3)c12` [ARQ-531, (2-chloro-4-phenoxyphenyl) (4-(((3R,6S)-6-(hydroxymethyl)tetrahydro-2H-pyran-3-yl)amino)-7H-pyrrolo[2,3-d]pyrimidin-5-yl) methanone], for which the inhibition at 1 µM was less than 50% at TRKC; 70 to 89% on PDGFRalpha; 50 to 69% on FES; 70 to 89% on EPHB2; 50 to 69% on CK1epsilon; 70 to 89% on MEKK2. Further, the inhibition at 1 µM is 90 to 100% on LCK and 50 to 69% on LRRK2.
Regarding `Cc1cccnc1[C@H]1CCC[C@@H](c2ncccc2C)N1CCN1CCN(C(=O)c2ccc(-c3cc4c(-c5cccc(NC(=O)c6ccccc6)c5C)ncnc4[nH]3)cc2)CC1` [Compound I-10, N-(3-(6-(4-(4-(2-((2R,6S)-2,6-bis(3-methylpyridin-2-yl)piperidin-1-yl)ethyl)piperazine-1-carbonyl)phenyl)-7H-pyrrolo[2,3-d]pyrimidin-4-yl)-2-methylphenyl)benzamide], the inhibition at 1 µM is less than 50% at TRKC; less than 50% at PDGFRalpha; less than 50% at FES; less than 50% on EPHB2; less than 50% at CK1epsilon; 50 to 89% at CLK2 (at 1 μM, read-out: inhibition of CLK2). The inhibition at 1 µM on CLK2 (setting [1]) is 50 to 69%; on MEKK2, less than 50%; on LCK it was less than 50%; on LRRK2, less than 50%.
On to `COc1ccc(F)cc1C(=O)NCc1ccc(-c2nn([C@@H](C)C(F)(F)F)c(N)c2C(N)=O)cc1` [LOXO-305, pirtobrutinib], for which the inhibition at 1 µM at TRKC is 50 to 69%; at PDGFRalpha, less than 50%; on FES it was less than 50%; on EPHB2, less than 50%; at CK1epsilon it was less than 50%; at CLK2 (setting [1]), less than 50%. The inhibition at 1 µM on MEKK2, on LCK and at LRRK2 was less than 50% each time.
Turning to `C=CC(=O)N1CCC([C@@H]2CCNc3c(C(N)=O)c(-c4ccc(Oc5ccccc5)cc4)nn32)CC1` [Zanubrutinib, (7S)-2-(4-phenoxyphenyl)-7-(1-prop-2-enoylpiperidin-4-yl)-4,5,6,7-tetrahydropyrazolo[1,5-a]pyrimidine-3-carboxamide], the inhibition at 1 µM on TRKC, on PDGFRalpha, at FES, on EPHB2, on CK1epsilon and at CLK2 (setting [1]) was less than 50% in each case. Further, the inhibition at 1 µM on MEKK2, on LCK and at LRRK2 was less than 50% throughout.
